Several values for one entry are separate records, joined by “and”; a condition that tells them apart may be missing. Equal values may be shown once. Inconclusive results and toxic doses are left out.
Test system: P388 leukemia ip, CD2F1 mice, survival T/C
Test: NCI In Vivo Anticancer Drug Screen. Data for tumor model P388 Leukemia (intraperitoneal) in CD2F1 (CDF1) mice
Conditions: endpoint: median survival time, higher = longer survival
Method in brief: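 Mice carrying the transplanted tumor received test compound or vehicle. Survival was recorded in each group, and the value is the treated-group measurement divided by that of the vehicle-treated control group.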

Cc1c2ccncc2c(C)c2c1[nH]c1ccccc12
T/C (dose: 0.31 mg/kg/injection, schedule: Q04DX003 (iv), vehicle: water): 99 % of control
T/C (dose: 0.63 mg/kg/injection, schedule: Q04DX003 (iv), vehicle: water): 107 % of control
T/C (dose: 1.25 mg/kg/injection, schedule: Q04DX003 (iv), vehicle: water): 99 % of control
T/C (dose: 1.56 mg/kg/injection, schedule: Q04DX003 (ip), vehicle: distilled water + Tween-80): 92 % of control
T/C (dose: 2.5 mg/kg/injection, schedule: Q04DX003 (ip), vehicle: water): 100 % of control
T/C (dose: 2.5 mg/kg/injection, schedule: Q04DX003 (iv), vehicle: distilled water + Tween-80): 107 % of control
T/C (dose: 2.5 mg/kg/injection, schedule: Q04DX003 (iv), vehicle: water): 94 % of control
T/C (dose: 3.12 mg/kg/injection, schedule: Q04DX003 (ip), vehicle: distilled water + Tween-80): 100 % of control
T/C (dose: 3.13 mg/kg/injection, schedule: Q01DX009 (ip), vehicle: saline with Tween-80): 154 % of control
T/C (dose: 3.89 mg/kg/injection, schedule: Q04DX003 (ip), vehicle: clinical formulation): 111 % of control
T/C (dose: 5.0 mg/kg/injection, schedule: Q01DX005 (ip), vehicle: Klucel (hydroxypropylcellulose) (HPC)): 156 % of control
T/C (dose: 5.0 mg/kg/injection, schedule: Q04DX003 (ip), vehicle: distilled water + Tween-80): 110 % of control
T/C (dose: 5.0 mg/kg/injection, schedule: Q04DX003 (ip), vehicle: water): 106 % of control and 110 % of control
T/C (dose: 5.0 mg/kg/injection, schedule: Q04DX003 (iv), vehicle: distilled water + Tween-80): 100 % of control
T/C (dose: 5.0 mg/kg/injection, schedule: Q04DX003 (iv), vehicle: water): 108 % of control
T/C (dose: 6.25 mg/kg/injection, schedule: Q01DX009 (ip), vehicle: saline with Tween-80): 181 % of control
T/C (dose: 6.25 mg/kg/injection, schedule: Q04DX003 (ip), vehicle: clinical formulation): 118 % of control and 119 % of control
T/C (dose: 6.25 mg/kg/injection, schedule: Q04DX003 (ip), vehicle: distilled water + Tween-80): 100 % of control and 121 % of control
T/C (dose: 6.25 mg/kg/injection, schedule: Q04DX003 (ip), vehicle: saline with Tween-80): 161 % of control
T/C (dose: 6.25 mg/kg/injection, schedule: Q04DX003 (ip), vehicle: saline): 112 % of control
T/C (dose: 6.48 mg/kg/injection, schedule: Q04DX003 (ip), vehicle: clinical formulation): 108 % of control
T/C (dose: 8.0 mg/kg/injection, schedule: Q01DX005 (ip), vehicle: saline with Tween-80): 160 % of control
T/C (dose: 8.0 mg/kg/injection, schedule: Q01DX005 (iv), vehicle: saline with Tween-80): 115 % of control
T/C (dose: 10.0 mg/kg/injection, schedule: Q01DX005 (ip), vehicle: Klucel (hydroxypropylcellulose) (HPC)): 153 % of control
T/C (dose: 10.0 mg/kg/injection, schedule: Q01DX005 (ip), vehicle: saline with Tween-80): 166 % of control
T/C (dose: 10.0 mg/kg/injection, schedule: Q04DX003 (ip), vehicle: distilled water + Tween-80): 118 % of control
T/C (dose: 10.0 mg/kg/injection, schedule: Q04DX003 (ip), vehicle: water): 112 % of control
T/C (dose: 10.0 mg/kg/injection, schedule: Q04DX003 (iv), vehicle: distilled water + Tween-80): 124 % of control
T/C (dose: 10.0 mg/kg/injection, schedule: Q04DX003 (iv), vehicle: water): 112 % of control
T/C (dose: 10.8 mg/kg/injection, schedule: Q04DX003 (ip), vehicle: clinical formulation): 110 % of control
T/C (dose: 12.5 mg/kg/injection, schedule: Q01DX009 (ip), vehicle: saline with Tween-80): 195 % of control and 204 % of control
T/C (dose: 12.5 mg/kg/injection, schedule: Q04DX002 (ip), vehicle: Klucel (hydroxypropylcellulose) (HPC)): 150 % of control
T/C (dose: 12.5 mg/kg/injection, schedule: Q04DX003 (ip), vehicle: alkali diluted with water): 164 % of control
T/C (dose: 13.0 mg/kg/injection, schedule: Q04DX003 (ip), vehicle: water): 123 % of control
T/C (dose: 16.0 mg/kg/injection, schedule: Q01DX005 (ip), vehicle: saline with Tween-80): 189 % of control
T/C (dose: 16.0 mg/kg/injection, schedule: Q01DX005 (iv), vehicle: saline with Tween-80): 117 % of control
T/C (dose: 16.0 mg/kg/injection, schedule: Q01DX005 (oral), vehicle: saline with Tween-80): 155 % of control
T/C (dose: 18.0 mg/kg/injection, schedule: Q04DX003 (ip), vehicle: clinical formulation): 110 % of control
T/C (dose: 20.0 mg/kg/injection, schedule: Q01DX005 (ip), vehicle: Klucel (hydroxypropylcellulose) (HPC)): 176 % of control and 177 % of control
T/C (dose: 20.0 mg/kg/injection, schedule: Q01DX005 (ip), vehicle: saline with Tween-80): 200 % of control
T/C (dose: 20.0 mg/kg/injection, schedule: Q01DX005 (iv), vehicle: saline with Tween-80): 111 % of control
T/C (dose: 20.0 mg/kg/injection, schedule: Q04DX003 (ip), vehicle: distilled water + Tween-80): 157 % of control
T/C (dose: 20.0 mg/kg/injection, schedule: Q04DX003 (ip), vehicle: water): 163 % of control
T/C (dose: 21.6 mg/kg/injection, schedule: Q04DX002 (ip), vehicle: Klucel (hydroxypropylcellulose) (HPC)): 171 % of control
T/C (dose: 21.6 mg/kg/injection, schedule: Q04DX003 (ip), vehicle: water): 150 % of control
T/C (dose: 25.0 mg/kg/injection, schedule: Q01DX009 (ip), vehicle: saline with Tween-80): 204 % of control
T/C (dose: 25.0 mg/kg/injection, schedule: Q04DX002 (ip), vehicle: Klucel (hydroxypropylcellulose) (HPC)): 153 % of control
T/C (dose: 25.0 mg/kg/injection, schedule: Q04DX003 (ip), vehicle: alkali diluted with water): 183 % of control
T/C (dose: 25.0 mg/kg/injection, schedule: Q04DX003 (ip), vehicle: clinical formulation): 178 % of control and 180 % of control
T/C (dose: 25.0 mg/kg/injection, schedule: Q04DX003 (ip), vehicle: water): 163 % of control
T/C (dose: 30.0 mg/kg/injection, schedule: Q04DX003 (ip), vehicle: clinical formulation): 198 % of control
T/C (dose: 32.0 mg/kg/injection, schedule: Q01DX005 (ip), vehicle: saline with Tween-80): 207 % of control
T/C (dose: 32.0 mg/kg/injection, schedule: Q01DX005 (iv), vehicle: saline with Tween-80): 162 % of control
T/C (dose: 32.0 mg/kg/injection, schedule: Q01DX005 (oral), vehicle: saline with Tween-80): 186 % of control
T/C (dose: 36.0 mg/kg/injection, schedule: Q04DX002 (ip), vehicle: Klucel (hydroxypropylcellulose) (HPC)): 191 % of control
T/C (dose: 36.0 mg/kg/injection, schedule: Q04DX002 (ip), vehicle: saline with Tween-80): 158 % of control
T/C (dose: 36.0 mg/kg/injection, schedule: Q04DX003 (ip), vehicle: water): 176 % of control
T/C (dose: 40.0 mg/kg/injection, schedule: Q01DX005 (ip), vehicle: Klucel (hydroxypropylcellulose) (HPC)): 202 % of control and 90 % of control
T/C (dose: 40.0 mg/kg/injection, schedule: Q01DX005 (ip), vehicle: saline with Tween-80): 227 % of control
T/C (dose: 40.0 mg/kg/injection, schedule: Q04DX003 (ip), vehicle: distilled water + Tween-80): 193 % of control
T/C (dose: 40.0 mg/kg/injection, schedule: Q04DX003 (ip), vehicle: water): 117 % of control
T/C (dose: 43.2 mg/kg/injection, schedule: Q04DX002 (ip), vehicle: saline with Tween-80): 176 % of control
T/C (dose: 50.0 mg/kg/injection, schedule: Q01DX009 (ip), vehicle: saline with Tween-80): 86 % of control
T/C (dose: 50.0 mg/kg/injection, schedule: Q04DX002 (ip), vehicle: Klucel (hydroxypropylcellulose) (HPC)): 168 % of control
T/C (dose: 50.0 mg/kg/injection, schedule: Q04DX003 (ip), vehicle: alkali diluted with water): 221 % of control
T/C (dose: 50.0 mg/kg/injection, schedule: Q04DX003 (ip), vehicle: clinical formulation): 181 % of control
T/C (dose: 50.0 mg/kg/injection, schedule: Q04DX003 (ip), vehicle: water): 167 % of control
T/C (dose: 60.0 mg/kg/injection, schedule: Q04DX002 (ip), vehicle: Klucel (hydroxypropylcellulose) (HPC)): 198 % of control
T/C (dose: 60.0 mg/kg/injection, schedule: Q04DX002 (ip), vehicle: saline with Tween-80): 161 % of control
T/C (dose: 60.0 mg/kg/injection, schedule: Q04DX003 (ip), vehicle: water): 219 % of control
T/C (dose: 72.0 mg/kg/injection, schedule: Q04DX002 (ip), vehicle: saline with Tween-80): 166 % of control and 199 % of control
T/C (dose: 80.0 mg/kg/injection, schedule: Q04DX003 (ip), vehicle: distilled water + Tween-80): 190 % of control and 254 % of control
T/C (dose: 90.0 mg/kg/injection, schedule: Q04DX002 (ip), vehicle: saline with Tween-80): 185 % of control and 190 % of control
T/C (dose: 100.0 mg/kg/injection, schedule: Q04DX002 (ip), vehicle: Klucel (hydroxypropylcellulose) (HPC)): 220 % of control and 230 % of control
T/C (dose: 100.0 mg/kg/injection, schedule: Q04DX003 (ip), vehicle: alkali diluted with water): 219 % of control
T/C (dose: 100.0 mg/kg/injection, schedule: Q04DX003 (ip), vehicle: water): 203 % of control
T/C (dose: 120.0 mg/kg/injection, schedule: Q04DX002 (ip), vehicle: saline with Tween-80): 157 % of control and 218 % of control
T/C (dose: 134.0 mg/kg/injection, schedule: Q04DX002 (ip), vehicle: saline with Tween-80): 211 % of control and 214 % of control
T/C (dose: 167.0 mg/kg/injection, schedule: Q04DX002 (ip), vehicle: Klucel (hydroxypropylcellulose) (HPC)): 207 % of control
T/C (dose: 167.0 mg/kg/injection, schedule: Q04DX002 (ip), vehicle: saline with Tween-80): 158 % of control
T/C (dose: 200.0 mg/kg/injection, schedule: Q04DX002 (ip), vehicle: Klucel (hydroxypropylcellulose) (HPC)): 88 % of control
T/C (dose: 200.0 mg/kg/injection, schedule: Q04DX003 (ip), vehicle: alkali diluted with water): 100 % of control
T/C (dose: 300.0 mg/kg/injection, schedule: Q04DX002 (ip), vehicle: saline with Tween-80): 165 % of control

Source: PubChem BioAssay AID330 (DTP/NCI, 2004)
